According to ChEMBL document CHEMBL4219258, “Determination of absolute configuration and binding efficacy of benzimidazole-based FabI inhibitors through the support of electronic circular dichroism and MM-GBSA techniques” (Bioorg Med Chem Lett, 2018):

Assay: Inhibition of Francisella tularensis FabI

SMILES	IC50 [nM]
C[C@@H](c1ccc(Cl)c(Cl)c1)n1cnc2cc3c(cc21)CCC3	16
C[C@H](c1ccc(Cl)c(Cl)c1)n1cnc2cc3c(cc21)CCCC3	7800
C[C@@H](c1ccc(Cl)c(Cl)c1)n1cnc2cc3c(cc21)CCCC3	14
C[C@H](c1ccc(Cl)c(Cl)c1)n1cnc2cc3c(cc21)CCC3	1840
